Square brackets hold non-standard residues; d marks the D form. Ends that are not written are not given here.
Tested on: mouse ADAMTS7
Experiment: TMT10 TAILS N-terminomics, HUVEC experiment (process replicates, trypsin/AspN digest)
Format: cell-based, human
Settings: for logFC.mWT.over.mEQ: HUVEC TAILS HC, log fold change of N-terminal peptide, Ad-mADAMTS7 WT over EQ
How it was run: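 Full-length mouse ADAMTS7 (WT or E373Q mutant, C-terminal 3xFLAG) or luciferase was transduced via adenovirus, 50 MOI, into HCA-SMC (SMC1, SMC2) or HUVEC. SMC1: pooled media, technical triplicates 400 ug; SMC2: process triplicates 300 ug; HUVEC: process triplicates 200 ug, bFGF2 10 ng/ml.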

Substance | logFC.mWT.over.mEQ | HUVEC logFC.mWT.over.mEQ (HUVEC experiment, log fold change, mouse ADAMTS7 WT over EQ)
ECM1_108 (QEAVPLQK; listed as Homo sapiens) | 2.12 | 
EFEMP1_125_ (VAGPEMQTGR; listed as Homo sapiens) | 2.45 | 
ERAP2_718 (ISENLKR; listed as Homo sapiens) | 4.41 | 
EWSR1_87 (YSQPVQGYGTGAY; listed as Homo sapiens) | 1.15 | 
FN1_34 ([code q]QMVQPQSPVAVSQSKPGCY; not fully specified (residue 3); listed as Homo sapiens) | 1.43 | 
FN1_35 ([code q]MVQPQSPVAVSQSKPGCY; not fully specified (residue 2); listed as Homo sapiens) | 2.58 | 
FN1_293 (VYQPQPHPQPPPYGHCVT; listed as Homo sapiens) | 1.24 | 
FN1_607 (SSSGPVEVFIT; listed as Homo sapiens) | 2.71 | 2.04
FN1_1144 (TPGVEYVYTIQVLR; listed as Homo sapiens) | 1.62 | 
FN1_1780 (LQGLRPGSEYTVSVVALH; listed as Homo sapiens) | 2.27 | 
FN1_1805 (LIGTQSTAIPAPT; listed as Homo sapiens) | 1.42 | 
FN1_2113 (FVTHPGY; listed as Homo sapiens) | 1.67 | 
FSTL1_290 (LQKHQETA; listed as Homo sapiens) | 2.57 | 
LOX_125 (FQAGYSTSR; listed as Homo sapiens) | 3.58 | 
